Converted amounts (≈) assume the structure as drawn. Where two headings read alike, the source gives them in different places.
Columns and labels:
KRAS (G12D)::SOS1 = KRAS (G12D)::SOS1 (Homo sapiens (Human), UniProt P01116, G12D); assay: KRAS::SOS1 AlphaScreen binding assay, KRAS G12D
Source text: (§1) This assay can be used to examine the potency with which compounds according to the invention binding to (mutated) KRAS inhibit the protein-protein interaction between SOS1 and (mutated) KRAS e.g., KRAS WT, KRAS G12C, KRAS G12D, KRAS G12V, KRAS G13D. […] Low IC50 values in this assay setting are indicative of strong inhibition of protein-protein interaction between SOS1 and KRAS:
(§2) These assays measure the inhibitory effect of compounds on KRAS mutant protein-protein interactions using the Alpha Screen technology by Perkin Elmer.
(§3) The following (mutant) enzyme forms of KRAS and interacting proteins are used in these assays at the given concentrations: • KRAS (G12D) 1-169, N-terminal 6His-tag, C-terminal avi-tag (Xtal BioStructures, Inc.); final assay concentration 10 nM and SOS1 564-1049, N-terminal 229 GST-tag, TEV cleavage site (Viva Biotech Ltd); final assay concentration 5 nM; • KRAS (G12C) 1-169, N-terminal 6His-tag for purification, cleaved off, C-terminal avi-tag, biotinylated, mutations: C51S, C80L, C118S (in house); final assay concentration 7.5 nM and SOS1 564-1049, N-terminal 229 GST-tag, TEV cleavage site (Viva Biotech Ltd); final assay concentration 5 nM; • KRAS (G12V) 1-169, N-terminal 6His-tag for purification, cleaved off, C-terminal avi-tag, biotinylated, TEV cleavage site, mutation: C118S, GDP loaded (in house); final assay concentration 10 nM and SOS1 564-1049, N-terminal 229 GST-tag, TEV cleavage site (Viva Biotech Ltd); final assay concentration 10 nM; • KRAS (G13D) 1-169, N-terminal 6His-tag for purification, cleaved off, C-terminal avi-tag, biotinylated, TEV cleavage site, mutation: C118S, GDP loaded (in house); final assay concentration 10 nM and SOS1 564-1049, N-terminal 229 GST-tag, TEV cleavage site (Viva Biotech Ltd); final assay concentration 10 nM; • KRAS (WT) 1-169, N-terminal 6His-tag for purification, cleaved off, C-terminal avi-tag, biotinylated, TEV cleavage site, mutation: C118S, GDP loaded (in house); final assay concentration 10 nM and SOS1 564-1049, N-terminal 229 GST-tag, TEV cleavage site (Viva Biotech Ltd); final assay concentration 10 nM.
(§4) Test compounds dissolved in DMSO are dispensed onto assay plates (Proxiplate 384 PLUS, white, PerkinElmer; 6008289) using an Access Labcyte Workstation with the Labcyte Echo 55×. For the chosen highest assay concentration of 100 μM, 150 nL of compound solution are transferred from a 10 mM DMSO compound stock solution. A series of eleven fivefold dilutions per compound are transferred to the assay plate, compound dilutions are tested in duplicates. DMSO are added as backfill to a total volume of 150 nL.
(§5) The assays run on a fully automated robotic system in a darkened room below 100 Lux. To 150 nl of compound dilution 10 μl of a mix including KRAS mutant protein, SOS1 (final assay concentrations see above) and GDP nucleotide (Sigma G7127; final assay concentration 10 μM) in assay buffer (1×PBS, 0.1% BSA, 0.05% Tween 20) are added into columns 1-24.
(§6) After 30 minutes incubation time 5 μl of Alpha Screen bead mix in assay buffer are added into columns 1-23. Bead mix consists of AlphaLISA Glutathione Acceptor Beads (PerkinElmer, Cat No AL109) and AlphaScreen Streptavidin Donor Beads (PerkinElmer Cat No 6760002) in assay buffer at a final assay concentration of 10 μg/ml each.
(§7) Plates are kept at room temperature in a darkened incubator. After an additional 60 minutes incubation time the signal is measured in a PerkinElmer Envision HTS Multilabel Reader using the AlphaScreen specs from PerkinElmer.
(§8) Each plate contains up to 16 wells of a negative control depending on the dilution procedure (platewise or serial) (DMSO instead of test compound; with KRAS mutant::SOS1 GDP mix and bead mix; column 23) and 16 wells of a positive control (DMSO instead of test compound; with KRAS mutant::SOS1 GDP mix w/o bead mix; column 24).
(§9) As internal control known inhibitors of KRAS mutant::SOS1 interaction can be measured on each compound plate. […]

KRAS (G12C)::SOS1 = KRAS (G12C)::SOS1 (Homo sapiens (Human), UniProt P01116, C118S/C51S/C80L/G12C); assay: KRAS::SOS1 AlphaScreen binding assay, KRAS G12C
Source text: as §1, §2, §3, §4, §5, §6, §7, §8, §9

[1] = Metabolic (microsomal) stability assay, human liver microsomes (HLM); assay type: in vitro ADME; conditions: predicted clearance as percent of liver blood flow, 1 μM
Experimental: The metabolic degradation of the test compound is assayed at 37° C. with pooled liver microsomes (mouse (MLM), rat (RLM) or human (HLM)). The final incubation volume of 48 μL pertime point contains TRIS buffer (pH 7.5; 0.1 M), magnesium chloride (6.5 mM), microsomal protein (0.5 mg/mL for mouse/rat, 1 mg/mL for human specimens) and the test compound at a final concentration of 1 μM. Following a short preincubation period at 37° C., the reactions are initiated by addition of 12 μL beta-nicotinamide adenine dinucleotide phosphate, reduced form (NADPH, 10 mM) and terminated by transferring an aliquot into solvent after different time points (0, 5, 15, 30, 60 min). Additionally, the NADPH-independent degradation is monitored in incubations without NADPH, terminated at the last time point by addition of acetonitrile. The quenched incubations are pelleted by centrifugation (4,000 rpm, 15 min). An aliquot of the supernatant is assayed by LC-MS/MS to quantify the concentration of parent compound in the individual samples.
In vitro intrinsic clearance (CLint, in vitro) is calculated from the time course of the disappearance of the test drug during the microsomal incubation. Each plot is fitted to the first-order elimination rate constant as C(t)═C0*exp(−ke*t), where C(t) and C0 are the concentration of unchanged test drug at incubation time t and that at preincubation and ke is the disappearance rate constant of the unchanged drug. Subsequently, CLint in vitro (μL min^−1·amount protein) values are converted to predicted CLint,in vivo (mL min^−1 kg^−1) from incubation parameters according to the equation CLint, in vivo=CLint, in vitro×(incubation volume (ml)/amount protein (mg))×(amount protein (mg)/g liver tissue)×(liver weight/body wt.).
For better across species comparison the predicted clearance is expressed as percent of the liver blood flow [% QH] (mL min^−1·kg^−1) in the individual species. In general, high stability (corresponding to low % QH) of the compounds across species is desired.

[2] = system: KRAS G12C-dependent Ba/F3 cells; assay: Ba/F3 proliferation assay, KRAS G12C; assay type: cell-based; conditions: Mus musculus, BaF3, 72 h, AlamarBlue
Experimental: (§10) Plasmids containing KRASG12 mutants (i.e. […], G12C, G12V) are obtained from GeneScript. To generate KRASG12-dependent Ba/F3 models, Ba/F3 cells are transduced with retroviruses containing vectors that harbor KRASG12 isoforms. Platinum-E cells (Cell Biolabs) are used for retrovirus packaging. Retrovirus is added to Ba/F3 cells. To ensure infection, 4 μg/mL polybrene is added and cells are spinfected. […] Cells with an infection efficiency of 10% to 20% are further cultivated and puromycin selection with 1 μg/mL is initiated. As a control, parental Ba/F3 cells are used to show selection status. Selection is considered successful when parental Ba/F3 cells cultures died. To evaluate the transforming potential of KRASG12 mutations, the growth medium is no longer supplemented with IL-3. Ba/F3 cells harboring the empty vector are used as a control. Approximately ten days before conducting the experiments, puromycin is left out.
(§11) Compounds are added using an Access Labcyte Workstation with a Labcyte Echo 550 or 555 accoustic dispenser. All treatments are performed in technical duplicates. […] AlamarBlue™ (ThermoFisher), a viability stain, is added and fluorescence measured in the PerkinElmer Envision HTS Multilabel Reader. The raw data are imported into and analyzed with the Boehringer Ingelheim proprietary software MegaLab (curve fitting based on the program PRISM, GraphPad Inc.).

[3] = Solubility measurement (DMSO solution method), McIlvaine buffer pH 4.5 or 6.8; assay type: physicochemical; conditions: aqueous buffer, kinetic from dmso stock, DMSO stock diluted to 250 μM, 24 h shaking at ambient temperature
Experimental: The DMSO solution is diluted with an aqueous medium (Mcllvaine buffer with pH=4.5 or 6.8) to a final concentration of 250 μM. After 24 h of shaking at ambient temperature a potentially formed precipitate is removed by filtration. The concentration of the test compound in the filtrate is determined by LC-UV methods by calibrating the signal to the signal of a reference solution with complete dissolution of the test compound in acetonitrile/water (1:1) with known concentration.

NCI-H358 cells = assay: NCI-H358 CTG proliferation assay (120 h) (NSCLC, G12C); assay type: cell-based, human; conditions: Homo sapiens, assay 2, CTG, read-out: H358 (assay 2) IC50
Experimental: NCI-H358 CTG Proliferation Assay (120 h) (NSCLC, G12C)
NCI-H358 cells (ATCC No. CRL-5807) are dispensed into white bottom opaque 96 well plates (Perkin Elmer cat no. 5680) at a density of 2000 cells per well in 100 μL RPMI-1640 ATCC-Formulation (Gibco #A10491)+10% FCS (fetal calf serum) (assay 1) or into black 384-well plates, flat and clear bottom (Greiner, PNr. 781091) at a density of 200 cells per well in 60 μl RPMI-1640 ATCC-Formulation (Gibco #A10491)+10% FCS (fetal calf serum) (assay 2). […] Compounds (10 mM stock in DMSO) are added at logarithmic dose series using the HP Digital Dispenser D300 (Tecan) (assay 1) or the ECHO acoustic liquid handler system (Beckman Coulter) (assay 2), normalizing for added DMSO and including DMSO controls. For the TO time point measurement, untreated cells are analyzed at the time of compound addition. Plates are incubated for 120 h, and cell viability is measured using CellTiter-Glo luminescent cell viability reagent (Promega product code G7570). Viability (stated as percent of control) is defined as relative luminescence units RLU of each well divided by the RLU of cells in DMSO controls. IC50 values are determined from viability measurements by non-linear regression using a four parameter model.

[4] = system: KRAS G12D-dependent Ba/F3 cells; assay: Ba/F3 proliferation assay, KRAS G12D; assay type: cell-based; conditions: Mus musculus, BaF3, 72 h, AlamarBlue
Experimental: as §10, §11

[5] = system: KRAS G12V-dependent Ba/F3 cells; assay: Ba/F3 proliferation assay, KRAS G12V; assay type: cell-based; conditions: Mus musculus, BaF3, 72 h, AlamarBlue;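 note: proliferation IC50 in KRAS G12V-dependent Ba/F3 cells read by AlamarBlue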
Experimental: as §10, §11

[6] = Plasma protein binding assay (PPB), equilibrium dialysis, 10% FCS in PBS; assay type: in vitro ADME; conditions: bovine, read-out: PPB 10% FCS (% fu)
Experimental: Binding of test compounds to plasma was determined using equilibrium dialysis (ED) and quantitative mass spectrometry interfaced with liquid chromatography (LC-MS). In brief, ED was performed with dialysis devices consisting of two chambers separated by a semipermeable membrane with a molecular weight cut-off of 5-10 kg/mol. One chamber was filled with 10% FCS in PBS containing 1-10 μmol/L test compound and the other chamber was filled with phosphate-buffer saline (PBS) with or without dextran. The dialysis chamber was incubated for 3-5 hours at 37° C. After incubation, protein was precipitated from aliquots of each chamber and the concentration of test compound in the supernatant of the plasma-containing compartment (Cserum) and of the buffer-containing compartment (Cbuffer) was determined by LC-MS. The fraction of unbound test compound (not bound to plasma) (fu) was calculated according to the following equation: […]

Chain of KRAS (G12D)::SOS1 (P01116 other isoform, or with tags, fused parts or gaps G12D): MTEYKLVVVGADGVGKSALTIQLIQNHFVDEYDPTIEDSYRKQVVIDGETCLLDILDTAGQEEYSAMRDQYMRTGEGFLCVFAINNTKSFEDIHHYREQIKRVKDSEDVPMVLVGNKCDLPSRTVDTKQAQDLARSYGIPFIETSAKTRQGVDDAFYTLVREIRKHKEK
Chain of KRAS (G12C)::SOS1 (P01116 other isoform, or with tags, fused parts or gaps G12C/C51S/C80L/C118S): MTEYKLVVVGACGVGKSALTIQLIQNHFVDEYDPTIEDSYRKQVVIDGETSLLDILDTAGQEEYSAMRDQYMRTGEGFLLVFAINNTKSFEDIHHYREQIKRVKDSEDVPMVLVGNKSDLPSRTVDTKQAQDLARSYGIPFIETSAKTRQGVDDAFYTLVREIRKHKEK

| IC50 (KRAS (G12D)::SOS1) | IC50 (KRAS (G12C)::SOS1) | HLM QH [1] | IC50 [2] | solubility at 24 h ([3]; McIlvaine buffer pH 4.5, read-out: solubility pH 4.5) | solubility at 24 h ([3]; McIlvaine buffer pH 6.8, read-out: solubility pH 6.8) | IC50 (NCI-H358 cells) | IC50 [4] | IC50 [5] | fraction unbound [6] | Compound |
| --- | --- | --- | --- | --- | --- | --- | --- | --- | --- | --- |
| 21 nM | 32 nM | 32% | 289 nM | 3 µg/mL (≈ 6.13 µM) | < 1 µg/mL |  |  |  |  | Cc1cc(-c2onc3c2CCC[C@@]32CCCc3sc(N)c(C#N)c32)nc(N2CCCNC[C@@H]2C)n1 [I-35] |
|  |  | <24% | 403 nM |  |  | 1720 nM | 72 nM | 401 nM | 0.48 | C[C@H](Oc1cc(N2CCN3CCC[C@]3(C)C2)nc(-c2noc3c2CCC[C@@]32CCCc3sc(N)c(C#N)c32)n1)[C@@H]1CCCN1C [II-52] |
|  |  | 59% | 15 nM |  |  | 134 nM | 54 nM | 8 nM | 0.42 | C[C@H](Oc1cc(-n2ccnn2)nc(-c2noc3c2CCC[C@@]32CCCc3sc(N)c(C#N)c32)n1)[C@@H]1CCCN1C [II-108] |
| 36 nM | 888 nM | 51% | 830 nM |  |  |  |  |  |  | C[C@H]1CN(C)CCCN1c1nc(-c2noc3c2CCC[C@@]32CCCc3sc(N)c(C#N)c32)cc(N2CCN(C)C3(CC3)C2)n1 [II-172] |

Reference: patent publication US20240174690A1, “ANNULATED 2-AMINO-3-CYANO THIOPHENES AND DERIVATIVES FOR THE TREATMENT OF CANCER” (BOEHRINGER INGELHEIM INTERNATIONAL GMBH, priority 2021, published 2024)
